Molecular target: T1, MmMgmA (Methanothermobacter marburgensis, UniProt D9PY35)
T1 construct: gene MTBMA_c15540; full-length; E. coli BL21(DE3) from codon-optimised gene in pET28a, reconstituted with 4Fe-4S and cobalamin (structure, kinetics); also TAP-tagged from M. acetivorans (native cobamide, peptide assay)
T1 sequence (D9PY35 1-430): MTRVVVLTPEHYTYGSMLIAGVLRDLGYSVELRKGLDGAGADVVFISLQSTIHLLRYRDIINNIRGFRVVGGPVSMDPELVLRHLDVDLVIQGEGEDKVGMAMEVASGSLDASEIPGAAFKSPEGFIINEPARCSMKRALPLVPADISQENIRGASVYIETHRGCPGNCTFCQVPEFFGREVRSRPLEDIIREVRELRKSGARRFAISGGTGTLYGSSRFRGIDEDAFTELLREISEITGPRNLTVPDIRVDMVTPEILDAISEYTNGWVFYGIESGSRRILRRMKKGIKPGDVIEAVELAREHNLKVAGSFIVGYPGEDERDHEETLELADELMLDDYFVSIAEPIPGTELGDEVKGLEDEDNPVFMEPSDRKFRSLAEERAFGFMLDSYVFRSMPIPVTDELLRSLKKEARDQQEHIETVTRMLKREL
Assay: UHPLC-MS of […]'-dAH and SAH
Type: biochemical
Conditions: reconstituted enzyme; 500 µM SAM, 200 µM McrA peptide, 2 mM Ti citrate, 250 mM KCl, 50 mM HEPES pH 7.5

C[S+](CC[C@H](N)C(=O)O)C[C@H]1O[C@@H](n2cnc3c(N)ncnc32)[C@H](O)[C@@H]1O (stereo partly shown) [SAM]
UHPLC-MS of 5'-dAH and SAH: The reconstituted enzyme was highly active
